The target of test [1] is interaction between PD-1 and PD-L1 (Homo sapiens (Human), UniProt Q9NZQ7). Put plainly: Cisbio PD-1/PD-L1 binding assay kit (HTRF). The settings on record: 8-10 concentrations, read-out: IC50, inhibitory activity at molecular level on the interaction between PD-1 and PD-L1. An excerpt: • 1. In vitro activity evaluation: Cisbio PD-1/PD-L1 binding assay kit was applied for the detection method of in vitro enzymology level. Screening Principles and Methods of PD-1/PD-L1 Small Molecule Inhibitors • 1) Principle: PD-1 protein is with HIS tag, and PD-1 ligand PD-L1 is with hFc tag. Eu labeled anti-hFc antibody and XL665 labeled anti-HIS antibody are combined with the above two label proteins respectively. After laser excitation, energy can be transferred from donor Eu to receptor XL665, allowing XL665 to glow. […] Reagents should be dispensed in the following order. For 384-well white ELISA plate, 2 μl of diluent or target compound diluted with diluent was added to each well, and then 4 μl of PD-1 protein and 4 μl of PD-L1 protein were added per well, incubated for 15 min at room temperature; and 10 μl of a mixture of anti-Tag1-Eu3+ and anti-Tag2-XL665 was added per well and incubated for 1 h to 4 h at room temperature and the fluorescence signals at 665 nm and 620 nm were measured with an Envison instrument. HTRF rate=(665 nm/620 nm)*10^4. 8-10 concentrations were detected for each compound and IC50 was calculated by Graphpad software. • 3) The results of the screening were shown in Table 1.

The test system of test [2] is advanced Hodgkin's lymphoma (HL). The following applies: patients with no treatment response to any approved drug; cited from earlier work.
The subject of test [3] is pleural mesothelioma (PM). The following applies: 25 patients with pleural mesothelioma; cited from earlier work.

Where a name gives a salt, the structure may show the parent alone.

interaction between PD-1 and PD-L1, sequence (Q9NZQ7 19-238): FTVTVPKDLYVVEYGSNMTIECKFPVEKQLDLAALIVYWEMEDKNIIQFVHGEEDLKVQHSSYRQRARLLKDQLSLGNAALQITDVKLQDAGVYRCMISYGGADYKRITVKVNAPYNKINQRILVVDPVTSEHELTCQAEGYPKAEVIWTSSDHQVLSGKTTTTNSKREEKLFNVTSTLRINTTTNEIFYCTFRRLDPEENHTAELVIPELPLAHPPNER

The IC50 is the concentration that gives 50% inhibition. Consider `NC(=O)[C@H](CO)NCc1cc(Cl)c(OCc2cccc(-c3ccccc3)c2Br)cc1OCC1CC1` (stereo in doubt) [Example 9, 2-(4-(2-bromo-3-phenylbenzyloxy)-5-chloro-2-(cyclopropylmethoxy)benzylamino)-3-hydroxypropanamide], for which, in test [1], the IC50 amounted to 81.6 nM.

Take `NC(=O)COc1cc(OCc2cccc(-c3ccccc3)c2Br)c(Cl)cc1CN[C@@H](CO)C(=O)O` [Example 1, (S)—N-(4-(2-bromo-3-phenylbenzyloxy)-5-chloro-2-(carbamoylmethoxy)benzyl)serine]: the IC50 in test [1] is 312 nM. The same measure, in the same setting: in the case of `COc1cc(OCc2cccc(-c3ccccc3)c2Br)c(Cl)cc1CNCCNC(C)=O` [Example 2, N-acetylaminoethyl-4-(2-bromo-3-phenylbenzyloxy)-5-chloro-2-methoxy benzylamine hydrochloride] it was 732 nM; in that of `C=CCOc1cc(OCc2cccc(-c3ccccc3)c2Br)c(Cl)cc1CNCCNC(C)=O` [Example 3, N-acetylaminoethyl-4-(2-bromo-3-phenylbenzyloxy)-5-chloro-2-allyloxy benzylamine], 126 nM. Still for that read-out and setting: for `C#CCOc1cc(OCc2cccc(-c3ccccc3)c2Br)c(Cl)cc1CNCCNC(C)=O` [Example 4, N-acetylaminoethyl-4-(2-bromo-3-phenylbenzyloxy)-5-chloro-2-(prop-2-ynyloxy)benzylamine] the value was 1800 nM; for `CC(=O)NCCNCc1cc(Cl)c(OCc2cccc(-c3ccccc3)c2Br)cc1OCC1CC1` [Example 5, N-acetylaminoethyl-4-(2-bromo-3-phenylbenzyloxy)-5-chloro-2-(cyclopropylmethoxy)benzylamine], 1150 nM. Take `CN(C)C(=O)COc1cc(OCc2cccc(-c3ccccc3)c2Br)c(Cl)cc1CNC(CO)C(=O)O` (stereo not shown) [Example 6]: the IC50 in test [1] is 42.5 nM. Take `C[C@@H](O)[C@H](NCc1cc(Cl)c(OCc2cccc(-c3ccccc3)c2Br)cc1OCC1CC1)C(=O)O` [Example 8, N-(4-(2-bromo-3-phenylbenzyloxy)-5-chloro-2-(cyclopropylmethoxy)benzyl)threonine]: the half-inhibitory concentration (IC50) in test [1] was 10.2 nM. Still for that read-out and setting: in the case of `CC(=O)NCCNCc1cc(Cl)c(OCc2cccc(-c3ccccc3)c2Br)cc1OCC1CC1` [Example 10, N-acetylaminoethyl-4-(2-bromo-3-phenylbenzyloxy)-5-chloro-2-(cyclopropylmethoxy)benzylamine] it was 1000 nM; in that of `NC(=O)NCCC[C@H](NCc1cc(Cl)c(OCc2cccc(-c3ccccc3)c2Br)cc1OCC1CC1)C(=O)O` [Example 11, N-(4-(2-bromo-3-phenylbenzyloxy)-5-chloro-2-(cyclopropylmethoxy)benzyl)Citrulline], 1410 nM.

For the compound `CON(C)C(=O)COc1cc(OCc2cccc(-c3ccccc3)c2Br)c(Cl)cc1CN[C@@H](CO)C(=O)O` [Example 12, N-(4-(2-bromo-3-phenylbenzyloxy)-5-chloro-2-(N-methoxy-N-methylcarbamoylmethoxy)benzyl)serine], in test [1], the IC50 was 191 nM. Turning to `O=C(O)[C@H](CO)NCc1cc(Cl)c(OCc2cccc(-c3ccccc3)c2Br)cc1OCC(=O)N1CCOCC1` [Example 13, N-(4-(2-bromo-3-phenylbenzyloxy)-5-chloro-2-(2-morpholino-2-oxoethoxy)benzyl)serine], the IC50 in test [1] turned out to be 41.3 nM. With `O=C(O)[C@H](CO)NCc1cc(Cl)c(OCc2cccc(-c3ccccc3)c2Br)cc1OCC1CC1` [Example 14, (S)—N-(4-(2-bromo-3-phenylbenzyloxy)-5-chloro-2-(cyclopropylmethoxy)benzyl)serine], the IC50 in test [1] was determined as 41.7 nM. As to `O=C(COc1cc(OCc2cccc(-c3ccccc3)c2Br)c(Cl)cc1CN1CCCC[C@H]1C(=O)O)NO` [Example 15, (S)—N-(4-(2-bromo-3-phenylbenzyloxy)-5-chloro-2-(N-hydroxycarbamoylmethoxy)benzyl)Pipecolinic Acid], the IC50 in test [1] worked out at 183 nM. Consider `O=C(O)[C@@H]1C[C@H](O)CN1Cc1cc(Cl)c(OCc2cccc(-c3ccc4c(c3)OCCO4)c2Br)cc1OCC1CC1` [Example 17, (S,S)—N-(4-(2-bromo-3-(2,3-dihydrobenzo[b][1,4]dioxin-6-yl)benzyloxy)-5-chloro-2-(cyclopropylmethoxy)benzyl)-4-hydroxyproline], for which the IC50 in test [1] stood at 40.5 nM. For nivolumab [Opdvio], the “treatment outcome in advanced Hodgkin's lymphoma” value in test [2] is given as “complete remission”. Consider pembrolizumab [Keytruda], for which, in test [3], the disease control rate is listed as 76% and the “overall response rate (ORR)” value is on record as 28%. The “treatment outcome in advanced Hodgkin's lymphoma” value in test [2] was “complete remission”.

The values are drawn from patent publication US10882833B2, “Phenylate derivative, preparation method therefor, and pharmaceutical composition and uses thereof” (Institute of Materia Medica, Chinese Academy of Medical …, priority 2016, dated 2021).
